Data taken from the supplement of paper PMC10307832.

Assays:
Assay in all cases: relative viability (nuclei count vs DMSO), 5 days (fraction); higher = more cells survive
Neratinib + AZD7762 = compound: CCOc1cc2ncc(C#N)c(Nc3ccc(OCc4ccccn4)c(Cl)c3)c2cc1NC(=O)/C=C/CN(C)C [Neratinib] + NC(=O)Nc1cc(-c2cccc(F)c2)sc1C(=O)N[C@H]1CCCNC1 [AZD7762] (partner 0.2 µM)
In short: (§1)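 Relative viability equals treated-well nuclei counts divided by vehicle-well nuclei counts. Counts came from 4× images of lung cancer cell lines grown in 1536-well plates for 5 days after pin-tool dosing on the day after seeding. Dosing used one drug alone or a fixed anchor-drug dose plus five library-drug doses (not always all listed) in √10 steps, and values are medians of duplicate plates.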

Neratinib + Luminespib = compound: CCOc1cc2ncc(C#N)c(Nc3ccc(OCc4ccccn4)c(Cl)c3)c2cc1NC(=O)/C=C/CN(C)C [Neratinib] + CCNC(=O)c1noc(-c2cc(C(C)C)c(O)cc2O)c1-c1ccc(CN2CCOCC2)cc1 [Luminespib] (partner 0.01 µM)
In short: as §1

Neratinib + Tozasertib = compound: CCOc1cc2ncc(C#N)c(Nc3ccc(OCc4ccccn4)c(Cl)c3)c2cc1NC(=O)/C=C/CN(C)C [Neratinib] + Cc1cc(Nc2cc(N3CCN(C)CC3)nc(Sc3ccc(NC(=O)C4CC4)cc3)n2)n[nH]1 [Tozasertib] (partner 0.1 µM)
In short: as §1

Neratinib + Foretinib = compound: CCOc1cc2ncc(C#N)c(Nc3ccc(OCc4ccccn4)c(Cl)c3)c2cc1NC(=O)/C=C/CN(C)C [Neratinib] + COc1cc2c(Oc3ccc(NC(=O)C4(C(=O)Nc5ccc(F)cc5)CC4)cc3F)ccnc2cc1OCCCN1CCOCC1 [Foretinib] (partner 0.25 µM)
In short: as §1

Cell Line	relative viability (Neratinib + AZD7762; first compound 0.01 µM)	relative viability (Neratinib + AZD7762; first compound 0.03162 µM)	relative viability (Neratinib + AZD7762; first compound 0.1 µM)	relative viability (Neratinib + AZD7762; first compound 0.3162 µM)	relative viability (Neratinib + AZD7762; first compound 1 µM)	relative viability (Neratinib + Luminespib; first compound 0.01 µM)	relative viability (Neratinib + Luminespib; first compound 0.03162 µM)	relative viability (Neratinib + Luminespib; first compound 0.1 µM)	relative viability (Neratinib + Luminespib; first compound 0.3162 µM)	relative viability (Neratinib + Luminespib; first compound 1 µM)	relative viability (Neratinib + Tozasertib; first compound 0.01 µM)	relative viability (Neratinib + Tozasertib; first compound 0.03162 µM)	relative viability (Neratinib + Tozasertib; first compound 0.1 µM)	relative viability (Neratinib + Tozasertib; first compound 0.3162 µM)	relative viability (Neratinib + Tozasertib; first compound 1 µM)	relative viability (Neratinib + Foretinib; first compound 0.01 µM)	relative viability (Neratinib + Foretinib; first compound 0.03162 µM)	relative viability (Neratinib + Foretinib; first compound 0.1 µM)	relative viability (Neratinib + Foretinib; first compound 0.3162 µM)	relative viability (Neratinib + Foretinib; first compound 1 µM)
LK-2	0.358	0.309	0.368	0.145	0.175	0.183	0.21	0.197	0.18	0.125	0.159	0.179	0.205	0.189	0.172	1.27	1.6	1.24	0.958	0.656
LOU-NH91	0.791	0.728	0.717	0.664	0.496	0.38	0.328	0.338	0.331	0.287	0.635	0.665	0.527	0.503	0.411	0.971	0.82	0.644	0.542	0.504
LU99A	0.426	0.403	0.314	0.374	0.263	0.268	0.19	0.231	0.333	0.22	0.286	0.279	0.274	0.25	0.19	0.959		0.73	0.462	0.376
LXF-289	1.09	1.12	1.04	1.21		0.726	0.805		0.695	0.453	0.22	0.233	0.183	0.174	0.186	1	1	0.961	0.995	0.709
NCI-H23	0.253	0.329	0.25	0.217	0.191	0.201	0.231	0.203	0.225	0.204	0.371	0.342	0.33	0.298	0.215		0.686		0.942	0.463
NCI-H322M	0.49	0.544	0.503	0.409	0.437	0.852	0.796	0.701	0.392	0.352	0.502	0.47	0.451	0.33	0.284	0.863	0.958		0.408	0.361
NCI-H358	0.533	0.508	0.358	0.257	0.223	0.301	0.518	0.279	0.108	0.12	0.0993	0.0867	0.0981	0.0713	0.0842	0.613	0.478	0.339	0.154	0.103
NCI-H441	1.12	1.32	0.958	0.987	0.73	0.415	0.413	0.423	0.304	0.16	0.611	0.775	0.666	0.384	0.334	1.01	1.04	1.07	0.856	0.492
NCI-H460	0.654	0.718	0.639	0.54	0.265	0.0344	0.0284	0.0244	0.0268	0.0188	0.587	0.546	0.378	0.268	0.0381	1.12	1.15	0.862	1.04	0.87
NCI-H596	1.07	1.27	0.745	1.1	0.805	1.04	1.04	1.02	1.02	0.758	0.862	0.961	0.736	0.857	0.601	0.89	0.986		0.798	0.622
NCI-H647	0.532	0.568	0.466	0.457	0.277	0.308	0.128	0.0778	0.153	0.118	0.281	0.333	0.155	0.195	0.174	1.36	1.34		1.11	0.601
NCI-H650	1.02	1.09		1	1.3	0.814	0.888	0.621	0.722	0.392	0.749	0.829	0.654	0.668	0.583	1.1	1.03	0.952	0.873	0.884
NCI-H727	0.574	0.568		0.497	0.374	0.382	0.337	0.328	0.312	0.352	0.675	0.535	0.5	0.53	0.34	0.978	0.709	0.793	0.842	0.558
NCI-H838	0.944	1.08	0.968		0.78	0.252	0.269	0.258	0.22	0.21	0.274	0.291	0.241	0.267	0.22	1.12	1.08	0.885		0.656
NCI-H1355	0.904	0.754	0.642	0.706	0.538	0.709	0.821	0.725	0.6	0.465	0.541	0.548	0.482	0.436	0.282			0.874	0.842	0.366
NCI-H1395	0.419	0.42	0.399	0.388	0.389	0.59		0.903	0.814	0.418		0.76	0.688	0.73	0.519	0.919	1.03		1.02	0.668
NCI-H1437	1.18	1.12	1.05	1.08	0.896	1.21	1.08	1	1.11	1.09	0.43	0.439	0.296	0.38	0.328	1.32	1.26	1.18	1.19	1.28
